± gives the standard deviation of the averaged measurements.
How the values were obtained:
Assay in all cases: level (log10 ratio to DMSO vehicle control); higher = higher biomarker level / cell amount than vehicle control
[1] = compound: OCCCC(F)(F)C(F)(F)C(F)(F)C(F)(F)C(F)(F)C(F)(F)C(F)(F)C(F)(F)F [3-(Perfluorooctyl)propanol]; conditions: 6700 nM; in DMSO
Method: (§1)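 BioMAP Diversity Plus panel of 12 human primary cell co-culture systems (3C, 4H, LPS, SAg, BT, BF4T, BE3C, CASM3C, HDF3CGF, KF3CT, MyoF, Mphg). Compounds were added 1 h before stimulation and left for 24 h (MyoF 48 h; BT 72 h for soluble read-outs or 6 d for IgG). Biomarkers were read by ELISA, cytotoxicity by SRB, PBMC viability and proliferation by Alamar Blue. Each well value was divided by the mean of 8 DMSO control wells on the same plate and log10 transformed; duplicate blinded samples were tested at 4 concentrations.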

[2] = compound: FC(F)(F)C(F)(F)C(F)(F)C(F)(F)CCI [1H,1H,2H,2H-Perfluorohexyl iodide]; conditions: in DMSO
Method: as §1

[3] = compound: O=S(=O)(O)CCC(F)(F)C(F)(F)C(F)(F)C(F)(F)F [4:2 Fluorotelomer sulfonic acid]; conditions: in DMSO
Method: as §1

[4] = compound: O=C(CC(=O)C(F)(F)C(F)(F)C(F)(F)F)c1cccs1 [(Perfluorobutyryl)-2-thenoylmethane]; conditions: in DMSO
Method: as §1

Methotrexate = compound: CN(Cc1cnc2nc(N)nc(N)c2n1)c1ccc(C(=O)N[C@@H](CCC(=O)O)C(=O)O)cc1 [Methotrexate]; conditions: in DMSO
Method: as §1

[5] = compound: FC(F)(F)COC(OCC(F)(F)F)OCC(F)(F)F [tris(Trifluoroethoxy)methane]; conditions: in DMSO
Method: as §1

[6] = compound: OCC(F)(F)C(F)(F)C(F)(F)C(F)(F)C(F)(F)C(F)(F)F [6:1 Fluorotelomer alcohol]; conditions: in DMSO
Method: as §1

Row | Test System | level (log10) [1] | level (log10) ([2]; 6700 nM) | level (log10) ([2]; 20000 nM) | level (log10) ([2]; 60000 nM) | level (log10) ([3]; 6700 nM) | level (log10) ([3]; 20000 nM) | level (log10) ([3]; 60000 nM) | level (log10) ([4]; 6700 nM) | level (log10) ([4]; 20000 nM) | level (log10) (Methotrexate; 1500 nM) | level (log10) (Methotrexate; 4400 nM) | level (log10) (Methotrexate; 13000 nM) | level (log10) (Methotrexate; 40000 nM) | level (log10) ([5]; 6700 nM) | level (log10) ([5]; 20000 nM) | level (log10) ([5]; 60000 nM) | level (log10) ([6]; 6700 nM) | level (log10) ([6]; 20000 nM) | level (log10) ([6]; 60000 nM)
1 | 4H:CD62P/P-selectin | -0.0465 ± 0.022 | -0.001 ± 0.011 | 0.023 ± 0.011 | 0.0135 ± 0.012 | -0.045 ± 0.075 | -0.0285 ± 0.059 | 0.005 ± 0.073 | -0.0205 ± 0.037 | -0.41 ± 0.032 | -0.019 ± 0.0028 | -0.0195 ± 0.032 | -0.0045 ± 0.086 | -0.0055 ± 0.073 | -0.0215 ± 0.064 | 0.011 ± 0.088 | -0.0135 ± 0.053 | -0.023 ± 0.038 | -0.0435 ± 0.029 | -0.182 ± 0.079
2 | 4H:CD106/VCAM-1 | 0.0065 ± 0.021 | 0.0045 ± 0.0021 | -0.0125 ± 0.0092 | -0.0525 ± 0.011 | -0.039 ± 0.037 | 0.014 ± 0.0057 | -0.0035 ± 0.023 | -0.009 ± 0.0071 | -0.234 ± 0.04 | -0.0045 ± 0.018 | -0.0095 ± 0.0021 | 0.005 ± 0.028 | -0.0005 ± 0.011 | -0.0145 ± 0.0035 | -0.0025 ± 0.0078 | -0.009 ± 0.0071 | 0.0035 ± 0.033 | -0.0045 ± 0.049 | 0.0195 ± 0.0078
3 | BF4T:CCL2/MCP-1 | -0.0265 ± 0.0092 | 0.013 ± 0.059 | 0.026 ± 0.065 | 0.0295 ± 0.13 | 0.0145 ± 0.037 | 0.0075 ± 0.00071 | 0.0395 ± 0.022 | -0.097 ± 0.018 | -0.306 ± 0.093 | 0.0115 ± 0.022 | 0.0135 ± 0.0035 | -0.022 ± 0.0028 | 0.0055 ± 0.029 | 0.0025 ± 0.023 | -0.0115 ± 0.032 | 0.019 ± 0.061 | 0.0155 ± 0.015 | -0.014 ± 0.028 | 0.0285 ± 0.015
4 | LPS:CD62E/E-Selectin | -0.148 ± 0.079 | 0.0035 ± 0.022 | -0.0105 ± 0.018 | -0.0095 ± 0.012 | 0.027 ± 0.028 | 0.027 ± 0.041 | 0.0285 ± 0.066 | -0.0755 ± 0.047 | 0.061 ± 0.016 | -0.01 ± 0.024 | -0.0185 ± 0.0021 | 0.005 ± 0.0014 | 0.005 ± 0.025 | -0.009 ± 0.033 | -0.005 | -0.009 ± 0.0071 | 0.001 ± 0.018 | -0.013 ± 0.011 | -0.014 ± 0.0071
5 | BT:PBMC Cytotoxicity | 0.021 ± 0.028 | -0.024 ± 0.0014 | -0.042 ± 0.0099 | -0.0045 ± 0.029 | 0.0075 ± 0.023 | 0 ± 0.0014 | 0.0435 ± 0.03 | 0.0005 ± 0.025 | -0.0515 ± 0.037 | -0.037 ± 0.0071 | -0.0455 ± 0.0021 | -0.0635 ± 0.0078 | -0.049 ± 0.035 | 0.002 ± 0.033 | 0.005 ± 0.035 | 0.006 ± 0.0057 | 0.017 ± 0.025 | 0.011 ± 0.037 | -0.082 ± 0.03
6 | 3C:CD87/uPAR | -0.03 ± 0.04 | 0.0035 ± 0.013 | -0.005 ± 0.0071 | 0.0085 ± 0.025 | -0.05 ± 0.047 | -0.017 ± 0.069 | 0.002 ± 0.058 | -0.148 ± 0.033 | -0.07 ± 0.03 | 0.0005 ± 0.0092 | 0.001 ± 0.047 | 0.01 ± 0.071 | -0.0095 ± 0.013 | -0.0515 ± 0.063 | -0.032 ± 0.027 | -0.018 ± 0.04 | -0.021 | -0.01 ± 0.042 | 0 ± 0.0085

From the supplement of paper PMC10331698
